Laboratory results from the NIST ThermoML archive (doi:10.1016/j.fluid.2017.03.010).
Numbers after ± are expanded uncertainties.

Conditions: Liquid

Compound	Normal boiling temperature (Othmer still) [°C]	Normal boiling temperature (othmer still) [°C]
O [water]	100.00 ± 1.6	
CCO [ethanol]		78.30 ± 1.6
